# Literature values, collected in US20170360829A1, “TREATMENT OF VASCULAR ANOMALIES” (GILLIES MCINDOE RESEARCH INSTITUTE, priority 2016, published 2017).
# How the values were obtained:
# venous malformation (VM) = conditions: treatment of VM; review by van der Vleuten et al. (ref. 14)
# [1] = test system: several tumoral cell lines
IC50 relative to cisplatin [1],Compound,effective in % of cases (venous malformation (VM)) [%]
,bleomycin,88
,polidocanol,82
,CCCCCCCCCCCCCCOS(=O)(=O)[O-].[Na+] [sodium tetradecyl sulfate],86
lower IC50 than cisplatin,[Pt(dmba)(aza-N1)(dmso)] complex 1,
,CCO [ethanol],74
